Assay results: patent publication US20070238723A1, “Benzoxazinyl-amidocyclopentyl-heterocyclic modulators of chemokine receptors” (priority 2004, published 2007)

Molecular target: T1, CCR-2 receptor (Homo sapiens, UniProt P41597)
T1 construct: the endogenous CCR-2 receptor on various cell types including monocytes, THP-1 cells; endogenous in cells; host or cells: monocytes, THP-1 cells (or unnamed eukaryotic cells expressing the cloned receptor)
Test: CCR-2 binding assay (inhibition of 125I-MCP-1 binding)
Conditions: qualitative comparison among separated isomers; assay not given
Protocol: Receptor affinity in a CCR-2 binding assay was determined by measuring inhibition of ^125I-MCP-1 to the endogenous CCR-2 receptor on various cell types including monocytes, THP-1 cells, or after heterologous expression of the cloned receptor in eukaryotic cells. The cells were suspended in binding buffer (50 mM HEPES, pH 7.2, 5 mM MgCl2, 1 mM CaCl2, and 0.50% BSA) with and added to test compound or DMSO and ^125I-MCP-1 at room temperature for 1 h to allow binding. The cells were then collected on GFB filters, washed with 25 mM HEPES buffer containing 500 mM NaCl and cell bound ^125I-MCP-1 was quantified.

T1 sequence (P41597 whole entry): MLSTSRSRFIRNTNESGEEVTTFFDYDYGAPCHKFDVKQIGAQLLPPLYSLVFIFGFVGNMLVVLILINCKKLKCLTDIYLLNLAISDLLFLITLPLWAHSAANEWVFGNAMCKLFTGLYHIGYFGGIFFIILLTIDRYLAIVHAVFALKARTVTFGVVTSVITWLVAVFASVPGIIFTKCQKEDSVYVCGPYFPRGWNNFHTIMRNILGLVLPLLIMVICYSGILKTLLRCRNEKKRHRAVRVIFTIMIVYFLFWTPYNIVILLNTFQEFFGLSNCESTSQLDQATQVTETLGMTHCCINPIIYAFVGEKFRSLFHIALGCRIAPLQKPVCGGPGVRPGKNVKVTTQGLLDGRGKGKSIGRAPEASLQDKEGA

potency relative to other stereoisomers: best potency
SMILES: CCOC(=O)c1cccc(C2CCN([C@@H]3CC[C@](C(C)=O)(C(=O)N4COc5ccc(C(F)(F)F)cc5C4)C3)CC2)c1 (single isomer, unassigned) [Peak 3]
